Test [1] concerns the target PIK3CA (human) (UniProt P42336). The test is described as follows: Assessment of PIK3CA Kinase Activity.
In test [2] the target is PIK3CD (Human) (UniProt O00329). The test is described as follows: Assessment of PIK3CD Kinase Activity.
Test [3] addresses PIK3CG (human) (UniProt P48736). The test can be described thus: Assessment of PIK3CG Kinase Activity.
In test [4] the target is PIK3CB (Human) (UniProt P42338). The test is described as follows: Assessment of PIK3CB Kinase Activity.
Sequence of PIK3CB (Human) (P42338 whole entry, looked up): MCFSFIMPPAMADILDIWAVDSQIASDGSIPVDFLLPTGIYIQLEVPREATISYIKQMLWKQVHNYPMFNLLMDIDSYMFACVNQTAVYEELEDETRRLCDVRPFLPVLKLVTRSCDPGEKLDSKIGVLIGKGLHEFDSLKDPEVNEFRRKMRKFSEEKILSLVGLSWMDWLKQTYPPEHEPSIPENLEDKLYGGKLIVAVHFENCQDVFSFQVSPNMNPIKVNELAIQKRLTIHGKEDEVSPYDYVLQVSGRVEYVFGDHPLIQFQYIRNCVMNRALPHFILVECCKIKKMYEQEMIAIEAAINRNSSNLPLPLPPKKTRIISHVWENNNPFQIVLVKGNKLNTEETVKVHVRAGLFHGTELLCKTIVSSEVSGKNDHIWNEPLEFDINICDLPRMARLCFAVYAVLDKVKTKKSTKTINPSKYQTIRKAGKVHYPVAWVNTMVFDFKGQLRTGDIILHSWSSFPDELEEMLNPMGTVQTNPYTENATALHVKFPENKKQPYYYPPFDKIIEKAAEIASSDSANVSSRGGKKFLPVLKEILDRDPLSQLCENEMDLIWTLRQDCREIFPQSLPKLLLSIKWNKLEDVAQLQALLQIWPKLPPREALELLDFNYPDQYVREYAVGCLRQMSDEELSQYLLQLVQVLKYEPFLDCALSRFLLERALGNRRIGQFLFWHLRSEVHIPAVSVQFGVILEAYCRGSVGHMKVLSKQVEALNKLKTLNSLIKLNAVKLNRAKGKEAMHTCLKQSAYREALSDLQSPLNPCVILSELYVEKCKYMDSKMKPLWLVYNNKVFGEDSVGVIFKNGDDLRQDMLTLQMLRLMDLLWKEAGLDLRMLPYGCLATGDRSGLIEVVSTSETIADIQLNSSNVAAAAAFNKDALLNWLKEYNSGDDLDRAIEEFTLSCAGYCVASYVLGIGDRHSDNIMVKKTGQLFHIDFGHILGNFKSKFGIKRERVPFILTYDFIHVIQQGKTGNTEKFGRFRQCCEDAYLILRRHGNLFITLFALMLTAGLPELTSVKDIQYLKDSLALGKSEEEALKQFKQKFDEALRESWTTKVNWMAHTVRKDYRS

Sequence of PIK3CG (human) (P48736 whole entry, looked up): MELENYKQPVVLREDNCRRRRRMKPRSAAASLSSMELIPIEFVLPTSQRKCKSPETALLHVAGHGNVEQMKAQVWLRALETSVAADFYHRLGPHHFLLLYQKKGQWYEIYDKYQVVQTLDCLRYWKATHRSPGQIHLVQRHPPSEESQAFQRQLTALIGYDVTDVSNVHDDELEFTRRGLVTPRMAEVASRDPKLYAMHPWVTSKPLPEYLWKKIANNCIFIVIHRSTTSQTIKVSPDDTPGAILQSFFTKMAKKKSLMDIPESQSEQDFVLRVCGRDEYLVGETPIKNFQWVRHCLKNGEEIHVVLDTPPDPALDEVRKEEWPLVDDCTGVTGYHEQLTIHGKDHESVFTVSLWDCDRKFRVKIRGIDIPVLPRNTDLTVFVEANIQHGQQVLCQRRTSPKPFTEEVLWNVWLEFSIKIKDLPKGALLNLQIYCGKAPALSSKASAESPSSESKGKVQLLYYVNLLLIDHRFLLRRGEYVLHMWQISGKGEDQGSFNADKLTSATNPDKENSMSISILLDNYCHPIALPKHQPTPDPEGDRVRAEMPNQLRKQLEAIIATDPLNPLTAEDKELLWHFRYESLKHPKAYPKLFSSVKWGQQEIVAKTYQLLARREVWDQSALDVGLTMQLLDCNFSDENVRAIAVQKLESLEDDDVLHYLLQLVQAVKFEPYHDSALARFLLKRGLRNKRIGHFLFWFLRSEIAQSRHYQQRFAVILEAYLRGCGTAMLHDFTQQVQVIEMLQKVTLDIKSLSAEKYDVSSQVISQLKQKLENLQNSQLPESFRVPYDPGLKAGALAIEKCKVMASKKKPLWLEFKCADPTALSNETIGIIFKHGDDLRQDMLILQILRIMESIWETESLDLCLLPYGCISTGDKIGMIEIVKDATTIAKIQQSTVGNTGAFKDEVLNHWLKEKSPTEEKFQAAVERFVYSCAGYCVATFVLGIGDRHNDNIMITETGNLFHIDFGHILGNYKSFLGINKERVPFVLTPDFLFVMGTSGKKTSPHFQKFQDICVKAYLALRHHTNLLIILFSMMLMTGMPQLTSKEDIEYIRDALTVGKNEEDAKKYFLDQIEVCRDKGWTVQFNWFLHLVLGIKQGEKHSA
Sequence of PIK3CA (human) (P42336 whole entry, looked up): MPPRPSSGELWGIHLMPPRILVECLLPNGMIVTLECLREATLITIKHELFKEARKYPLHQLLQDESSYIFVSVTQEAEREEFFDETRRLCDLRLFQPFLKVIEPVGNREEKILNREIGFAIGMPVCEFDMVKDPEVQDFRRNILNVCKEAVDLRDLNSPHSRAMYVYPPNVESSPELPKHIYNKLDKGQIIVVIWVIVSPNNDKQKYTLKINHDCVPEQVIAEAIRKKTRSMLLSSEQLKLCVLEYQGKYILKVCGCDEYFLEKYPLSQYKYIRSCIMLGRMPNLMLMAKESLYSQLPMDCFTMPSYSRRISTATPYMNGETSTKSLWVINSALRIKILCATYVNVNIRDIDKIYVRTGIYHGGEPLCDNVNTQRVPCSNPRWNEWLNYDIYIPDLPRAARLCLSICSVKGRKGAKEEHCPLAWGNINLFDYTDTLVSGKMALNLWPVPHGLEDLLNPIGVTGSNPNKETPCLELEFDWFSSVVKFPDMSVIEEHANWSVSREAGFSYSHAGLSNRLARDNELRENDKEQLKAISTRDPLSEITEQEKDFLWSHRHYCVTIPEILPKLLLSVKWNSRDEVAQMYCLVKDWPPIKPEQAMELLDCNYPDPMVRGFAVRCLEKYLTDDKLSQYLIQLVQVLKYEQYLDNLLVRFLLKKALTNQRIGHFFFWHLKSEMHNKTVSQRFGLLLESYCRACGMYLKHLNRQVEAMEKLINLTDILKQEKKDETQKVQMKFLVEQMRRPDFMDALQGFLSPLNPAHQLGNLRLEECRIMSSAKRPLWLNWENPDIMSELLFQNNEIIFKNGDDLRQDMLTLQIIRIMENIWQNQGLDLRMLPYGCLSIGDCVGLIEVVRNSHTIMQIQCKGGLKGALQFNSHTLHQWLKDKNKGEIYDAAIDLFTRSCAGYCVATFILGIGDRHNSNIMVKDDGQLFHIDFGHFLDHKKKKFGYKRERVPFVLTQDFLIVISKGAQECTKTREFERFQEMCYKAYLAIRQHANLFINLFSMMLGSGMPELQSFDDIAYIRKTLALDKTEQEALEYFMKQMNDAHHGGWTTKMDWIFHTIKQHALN
Sequence of PIK3CD (Human) (O00329 whole entry, looked up): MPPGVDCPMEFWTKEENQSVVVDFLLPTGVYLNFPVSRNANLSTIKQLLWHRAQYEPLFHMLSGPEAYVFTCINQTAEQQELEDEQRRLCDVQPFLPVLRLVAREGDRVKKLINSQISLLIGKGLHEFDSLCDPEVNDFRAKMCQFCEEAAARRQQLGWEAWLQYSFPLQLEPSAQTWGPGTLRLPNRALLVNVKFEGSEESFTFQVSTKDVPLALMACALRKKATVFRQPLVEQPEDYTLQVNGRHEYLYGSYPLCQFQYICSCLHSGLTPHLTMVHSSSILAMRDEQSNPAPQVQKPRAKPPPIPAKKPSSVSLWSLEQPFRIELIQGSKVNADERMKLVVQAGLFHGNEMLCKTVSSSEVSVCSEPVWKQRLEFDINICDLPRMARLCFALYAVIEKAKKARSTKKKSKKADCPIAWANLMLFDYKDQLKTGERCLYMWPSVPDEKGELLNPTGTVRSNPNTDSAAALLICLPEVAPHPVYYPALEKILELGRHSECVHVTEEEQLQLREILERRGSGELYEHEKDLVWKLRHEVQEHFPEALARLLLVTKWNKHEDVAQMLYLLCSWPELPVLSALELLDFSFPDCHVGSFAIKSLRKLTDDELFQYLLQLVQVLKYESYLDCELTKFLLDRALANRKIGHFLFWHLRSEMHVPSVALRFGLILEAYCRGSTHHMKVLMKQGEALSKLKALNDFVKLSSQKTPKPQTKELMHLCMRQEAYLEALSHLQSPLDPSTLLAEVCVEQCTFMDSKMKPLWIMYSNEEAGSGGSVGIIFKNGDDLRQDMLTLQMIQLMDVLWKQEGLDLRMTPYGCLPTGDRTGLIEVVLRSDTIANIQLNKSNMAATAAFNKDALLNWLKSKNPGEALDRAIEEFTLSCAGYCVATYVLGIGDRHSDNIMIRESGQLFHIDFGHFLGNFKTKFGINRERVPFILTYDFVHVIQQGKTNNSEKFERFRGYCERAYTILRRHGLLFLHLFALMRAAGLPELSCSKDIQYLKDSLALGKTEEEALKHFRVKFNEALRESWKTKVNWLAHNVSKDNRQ

As for `CNc1nc(C)c2cc(-c3ccc(O)c(F)c3)ccc2n1`, in test [1], the 50% inhibitory concentration (IC50) (commonly the concentration that inhibits the measured activity by half) lay within 500 to 1000 nM.

As for `Cc1nc(Nc2cccnc2)nc2ccc(-c3cc(O)cc(F)c3)cc12`, the IC50 in test [2], in test [3] and in test [1] was no more than 100 nM throughout.

Regarding `CNc1nc(C)c2cc(-c3cnc4[nH]ccc4c3)ccc2n1`, the IC50 lay in the range of 100 to 500 nM in test [3] and 500 to 1000 nM in test [1].

For the molecule `CNc1nc(C)c2cc(-c3ccc(O)c(Cl)c3)ccc2n1`, the 50% inhibitory concentration (IC50) in test [1] lay within 500 to 1000 nM.

Take `CNc1nc(C)c2cc(-c3ccc(F)c(O)c3)ccc2n1`: the 50% inhibitory concentration (IC50) in test [1] was in the range of 500 to 1000 nM.

With `Cc1nc(Nc2cccnc2)nc2ccc(-c3cccc(O)c3)cc12`, the IC50 in test [2], in test [3] and in test [1] was no more than 100 nM in each case.

For `CNc1nc(C)c2cc(-c3cc(O)cc(F)c3)ccc2n1`, the 50% inhibitory concentration (IC50) was no more than 100 nM in test [2], no more than 100 nM in test [3], 100 to 500 nM in test [1] and 500 to 1000 nM in test [4].

As for `Cc1nc(N)nc2ccc(-c3cccc(O)c3)cc12`, the IC50 was no more than 100 nM in test [2], no more than 100 nM in test [3], 100 to 500 nM in test [1] and 100 to 500 nM in test [4].

For the molecule `Cc1nc(N)nc2ccc(-c3cnc4[nH]ccc4c3)cc12`, the concentration for half-maximal inhibition (IC50) in test [1] is 500 to 1000 nM.

On to `CNc1nc(C)c2cc(-c3cccc(O)c3)ccc2n1`, for which the results for the concentration for half-maximal inhibition (IC50) in test [2], in test [3] and in test [1] were 100 to 500 nM, no more than 100 nM and 100 to 500 nM, respectively.

For the molecule `Nc1ncc2cc(-c3cccc(O)c3)ccc2n1`, in test [1], the half-inhibitory concentration (IC50) lay within 100 to 500 nM.

For the origin of these results see the Kinase Knowledgebase extract (Sharma et al. 2016).
